According to US20090012148A1, “REDUCING CELLULAR CHOLESTEROL LEVELS AND/OR TREATING OR PREVENTING PHOSPHOLIPIDOSIS” (priority 2005, published 2009):
“Also recorded” adds a separate entry of the source.

Assays:
CT60 cells [1] = test: Gas chromatography cholesterol assay; type: cell-based, Chinese hamster; conditions: 10 μM, FC = free cholesterol
Procedure: The cholesterol lowering effect of the 14 hit compounds identified by filipin labeling was measured by an alternative chemical method that involved GC separation of solvent-extracted cellular lipids (43). CT60 cells were treated with compounds at 10 μM under the same conditions as in the screening assays. Since the GC assay estimates FC content per cell, the values are compared to the average filipin intensity assay (Table 1).
CT60 or CT43 cells were plated on day 1 in 6-well plates. Hit compounds were added to the cells at 10 μM concentration. Cells were incubated for 24 h. Cellular lipids were extracted with hexane: iso-propyl alcohol (3:2 v/v). The lipid extracts were dried and re-suspended in hexane followed by separation on gas chromatograph using β-sitosterol as an internal standard.
Procedure: CT60 cells were plated in 6-well plates in Ham's F-12/1.176 g/L sodium bicarbonate/2 g/L glucose/10% FBS. Following 24 h incubation, cells were treated with 10 μM of each compounds, medium being replaced with Ham's F-12/1.176 g/L sodium bicarbonate/2 g/L glucose/5.5% FBS/20 mM HEPES. The change of the medium in the wells was performed to have experimental conditions similar to those used for the screening once chemical compounds were added to the cells. After 18 h treatment with compounds, cells were washed twice with Hank's balanced salt solutions (HBSS). Cellular lipids were extracted with hexane/isopropyl alcohol (3:2 v/v) (43) dried and resuspended in hexane followed by separation on a gas chromatograph (GC) using following conditions. A Hewlett Packard GC model HP 5890 series II (Palo Alto, Calif.) equipped with a flame ionization detector, split-splitless injector, and 15 m×0.53 mm HP-5 capillary column coated with […] film thickness of 5% phenyl methyl siloxane was used to separate free cholesterol. The injection temperature was maintained at 255° C. and oven temperature was held isothermally at 260° C. using helium as a mobile phase at 30 mL/min flow rate. The free cholesterol (FC) was quantified using beta-sitosterol as internal standard to correct for lipid losses during extraction.

CT60 cells [2] = test: Filipin binding assay, average filipin intensity and staining pattern; type: cell-based, Chinese hamster; conditions: 10 μM; for Average filipin intensity Fraction of control: 14 hit compounds from primary library
Procedure: We developed assays for correction of the NPC phenotype in CHO cell lines using filipin, which binds to non-esterified cholesterol and has been used to visualize the free cholesterol content in NPC cells. The initial screens were carried out in CT60 cells, which express a mutated hamster NPC1 protein and a gain of function mutation in SCAP (42). These cells cannot traffic LDL-derived cholesterol out of late endosomes, and large amounts of cholesterol accumulate in LSO compartments. FIGS. 1A-B show images of filipin staining in a control CHO cell line, TRVb1 (45) (FIG. 1A) and in CT60 cells (FIG. 1B). It can be seen that the CT60 cells show much more filipin staining than control cells and that the fluorescence in CT60 cells is concentrated in peri-nuclear organelles.
For screening, images were acquired using a Discovery-1 automated microscopy system with a 10× objective and corrected for background and shading as described in Methods. Two thresholds were set for filipin staining, a low threshold to include all cell areas, and a high threshold for the strong filipin staining in the peri-nuclear LSOs. The threshold values were set for each plate from analysis of 64 images in 32 wells of untreated CT60 cells. […] In developing the low threshold, we compared the outlines based on the thresholded cell images with transmitted light images, and the thresholds provided good agreement with the transmitted light cell boundaries.
As a simple measure of the intensity of filipin staining, we measured the filipin intensity per pixel above the threshold. The conditions of filipin labeling (time and concentration) were adjusted to optimize the discrimination between the CT60 cells and control TRVb1 cells. […] The quality of the assay for screening is expressed in terms of a statistical parameter Z′(46):
Using the above screening technique, we screened a library of 14,956 compounds added to cells for 16 hours at a final concentration of 10 μM, using a single well for each compound. Prior to application of the compounds, cells were grown in normal tissue culture medium containing 10% FBS, so the LSOs were filled with cholesterol (FIG. 1B). The cells were then imaged and analyzed using the average filipin intensity assay and the LSO compartment assay. In general, the two analyses identified similar compounds that reduced the filipin labeling.
Compound addition: The library compounds were formatted for screening in the Rockefeller University High Throughput Screening Facility. Cells were treated with the compounds from the chemical library one day after plating. We added […] of each compound (5 mM stock in DMSO) to 25 μl of screening Medium S composed of medium A supplemented with 1% FBS and 20 mM 4-(2-hydroxyethyl)-1-pipiperazine ethane sulphonic acid (HEPES) in Falcon 384-well V-bottomed polypropylene plates using a Packard MiniTrak™ robotic liquid handling system. To obtain ˜10 μM final concentration, 23 μl of the premixed compounds were dispensed into the plates containing cells and […] of culture medium A. For primary screening, 352 test compounds were added to each plate, and the remaining 32 wells were used as a control with only DMSO added. All plates were incubated with compounds for 16 h at 37° C. Plates were then washed three times with phosphate buffered saline pH 7.4 (PBS) using a Bio-Tek Elx405 plate washer (Bio-Tek Instruments Inc., Winooski, Vt.). For each wash cycle, […] of PBS was dispensed followed by aspiration with a residual volume of 16 μl per well. Finally, cells were fixed with 1.5% PFA in PBS for 20 min at room temperature, followed by 3 more washes with PBS.
Fluorescence labeling. To the fixed cells, filipin was added at a final concentration of 50 μg/ml in PBS for 45 m at room temperature to label free cholesterol. Cells were finally washed three times with PBS, and images were acquired immediately after labeling. […]

normal human fibroblasts [3] = test: Filipin staining of normal human fibroblasts; type: cell-based; conditions: data not shown
Procedure: These cells show rearrangements that may indicate that cholesterol has been redirected to a different compartment or that the morphology of the LSOs themselves has been changed (compound 1-c-3, FIG. 4C).
(§1) Normal human fibroblasts (GM5659E) were grown in MEM with 1% P/S and 10% FBS. For microscopy, fibroblasts were plated in normal growth medium on glass-bottomed 35 mm dishes or in 384-well plates.

normal human fibroblasts [4] = test: Filipin LSO ratio assay on U18666A-treated normal human fibroblasts; type: cell-based; conditions: 250 nM or 500 nM, 20 hours
Procedure: FIG. 12 depicts the effect of 7 compounds (2-a-1, 2-a-3, 2-a-8, 2-a-9, 2-a-12, 2-a-13, 2-a-15) from the second library on U18666A-treated normal human fibroblasts. Normal human fibroblasts were plated in 384 well plates and grown in regular growth medium for 24 h, after which the cells were treated with compound U18666A (500 nM or 250 nM) in screening medium for 4 h. The cells were then further incubated overnight with hit compounds (10 μM) in the continued presence of U18666A. Finally, cells were washed three times with PBS, fixed with 1.5% PFA, washed with PBS and stained with filipin. Images were acquired using the Discovery1 microscope at 10× magnification and analyzed for the LSO ratio. Solid horizontal lines are the mean for U18666A-treated cells at each concentration, and the dotted horizontal lines indicate −3 SD.
as §1
Normalized values were obtained by dividing the values in the presence of each compound by the values obtained in presence of solvent control for each plate. Similar methods were used to analyze the effects of compounds on human fibroblasts treated with U18666A to induce cholesterol retention in LSOs. […]

Row | Structure (SMILES) | μg FC/μg Protein by GC Fraction of control (CT60 cells [1]) | Average filipin intensity Fraction of control (CT60 cells [2]) | also measured
1 | Nc1c(Sc2ccccc2)cc(Sc2ccccc2)c2c1C(=O)c1ccccc1C2=O [Compound 1-a-1] | 1.02 ± 0.03 Fraction of control | 0.87 ± 0.04 Fraction of control | –
2 | C=CCN1C(=O)C(=CC=Cc2ccc(N(C)C)cc2)SC1=S [Compound 1-a-2] | 1.15 ± 0.05 Fraction of control | 0.88 ± 0.04 Fraction of control | –
3 | CCOc1ccc(NN=C2C(=O)N(c3nc(-c4ccccc4)cs3)N=C2c2ccccc2)cc1 [Compound 1-a-3] | 1.27 ± 0.07 Fraction of control | 0.95 ± 0.04 Fraction of control | –
4 | COc1ccccc1NN=C1C(=O)N(c2nc(-c3ccc(Cl)cc3)cs2)N=C1C [Compound 1-a-4] | 0.87 ± 0.07 Fraction of control | 1.01 ± 0.04 Fraction of control | –
5 | O=C1C(=Cc2ccc(-c3ccc(Cl)c(Cl)c3)o2)C=C(c2ccccc2)N1c1ccc(O)cc1 [Compound 1-a-5] | 1.18 ± 0.06 Fraction of control | 0.89 ± 0.04 Fraction of control | –
6 | O=C1C(=Cc2ccc(-c3ccc(Cl)c(Cl)c3)o2)C=C(c2ccccc2)N1c1ccccc1O [Compound 1-a-6] | 1.37 ± 0.01 Fraction of control | 0.92 ± 0.04 Fraction of control | –
7 | O=C1C(=Cc2ccc(-c3cc(Cl)ccc3Cl)o2)C=C(c2ccccc2)N1c1ccc(O)cc1 [Compound 1-a-7] | 1.04 ± 0.13 Fraction of control | 0.89 ± 0.04 Fraction of control | –
8 | O=C1C(=Cc2ccc(-c3ccc(Br)cc3)o2)C=C(c2ccccc2)N1c1ccc(O)cc1 [Compound 1-a-8] | 1.31 ± 0.10 Fraction of control | 0.90 ± 0.04 Fraction of control | –
9 | O=C1Nc2ccccc2C1=NNc1nc(N2CCCCC2)nc(N2CCCCC2)n1 [Compound 1-a-9] | 0.86 ± 0.07 Fraction of control | 0.99 ± 0.04 Fraction of control | –
10 | Cc1cc([N+](=O)[O-])ccc1NC(=O)CC1SC(=Nc2ccccc2)N(c2ccccc2)C1=O (stereo not shown) [Compound 1-a-10] | 1.23 ± 0.08 Fraction of control | 0.96 ± 0.04 Fraction of control | –
11 | CCOC(=O)c1sc(NC(=O)c2ccccc2C)nc1-c1ccccc1 [Compound 1-a-11] | 0.82 ± 0.07 Fraction of control | 0.90 ± 0.04 Fraction of control | –
12 | CN(C)c1cc(NN=Cc2cccs2)nc(N(C)C)n1 [Compound 1-a-12] | 0.73 ± 0.03 Fraction of control | 0.91 ± 0.04 Fraction of control | –
13 | O=C(O)c1ccc(N2C(=O)C(=Cc3ccc(-c4ccc(Br)cc4)o3)C=C2c2ccccc2)cc1 [Compound 1-a-13] | 1.54 ± 0.11 Fraction of control | 0.97 ± 0.04 Fraction of control | –
14 | Clc1ccccc1N1N=C(C=Cc2cccs2)CC1c1cccs1 (stereo not shown) [Compound 1-b-2] | – | – | change in filipin intensity (CT60 cells [2]): increase in filipin intensity; also recorded: increased filipin intensity
15 | CC(C)(C)c1ccc(C(=O)Nc2ccc(-c3nc4ccccc4o3)c(O)c2)cc1 [Compound 1-b-4] | – | – | effect on filipin staining compared with CT60 cells (normal human fibroblasts [3]): similar; change in filipin intensity (CT60 cells [2]): significant increase; also recorded: increased filipin-intensity; also recorded: increased filipin intensity; morphological change of the filipin staining pattern (CT60 cells [2]): filamentous or tubular staining; also recorded: induced morphological changes; also recorded: bright swirls of filipin staining
16 | CCN(CC)C(=O)CCN1C(=O)C(=Cc2ccc(F)cc2)SC1=S [Compound 1-c-2] | – | – | change in filipin intensity (CT60 cells [2]): no significant change; morphological change of the filipin staining pattern (CT60 cells [2]): more compact LSOs; also recorded: morphological changes
17 | CC1=NN(c2ccccc2)C(=O)C1=NNc1ccccc1C(=O)O [Compound 1-c-3] | – | – | morphological change of the filipin staining pattern (CT60 cells [2]): peri-nuclear clusters of LSOs in mutant cells to become more dispersed; also recorded: morphological changes; also recorded: large network of apparently tubular organelles
18 | CCN(CC)CCO[C@H]1CC[C@@]2(C)C(=CC[C@@H]3[C@@H]2CC[C@]2(C)C(=O)CC[C@@H]32)C1 [Compound U18666A] | – | – | cholesterol accumulation by filipin staining and LSO compartment ratio (normal human fibroblasts [4]): significant increase
